The subject of one data set is SKNO-1. Description: Half-maximal growth inhibition (GI50), SKNO-1. The format is cell-based. As to conditions: Homo sapiens, 240 h, AML, M2, RUNX1-RUNX1T1, read-out: GI50 (nM), day 10. On the procedure:
(§1) Compounds A, B, C, D, and F were tested against various cell lines to probe their broad utility against cancer. Cortistatin A (CA) was also tested against the cell lines in a head to head fashion.

Another data set concerns HEL. Description: Half-maximal growth inhibition (GI50), HEL. The format is cell-based. The following applies: Homo sapiens, 240 h, AML, erythroleukemia, JAK2V617F, read-out: GI50 (nM), day 10. On the procedure:
as §1

A short description of a further data set: in vivo. As to conditions: male, CD-1, mouse, ip, 0.16 mg/kg.
For the next data set, the system named is MOLM-14. Description: Half-maximal growth inhibition (GI50), MOLM-14. As to conditions: Homo sapiens, 240 h, AML, M5, MLL-AF9, read-out: GI50 (nM), day 10. The format is cell-based. On the procedure: as §1
The subject of data set [1] is Human AML cell line MV4;11. Briefly: MV4;11 disseminated leukemia model (bioluminescence). The data set is classed as in vivo, NSG mice. The following applies: each compound at its own dose/schedule; data from 3 separate studies. On the procedure: The in vivo anti-leukemic activity of Compounds A, B, C, D, and F was tested at the indicated doses and treatment schedules. The doses were chosen based on the compounds tolerability profile (i.e. CA was dosed at 0.16 mg/kg because higher doses caused weight loss or other tolerability issues outlined in Example 6). Human AML cell line MV4;11 expressing mCherry and luciferase were injected into NSG mice. Upon measurement of leukemia cell engraftment, treatment was initiated. Body weight and bioluminescence were measured. It has previously been shown (Shair, Nature 2015) that bioluminescence corresponds to leukemia burden. […] Moreover there was no appreciable advantage between IV or PO dosing observed.

A further data set deals with K562. Briefly: Half-maximal growth inhibition (GI50), K562. The data set is classed as cell-based. As to conditions: Homo sapiens, 240 h, CML, BCR-Abl, read-out: GI50 (nM), day 10. How it is done:
as §1

Another data set has as its system OCI-AML2. Briefly: Half-maximal growth inhibition (GI50), OCI-AML2. The format is cell-based. The following applies: Homo sapiens, 240 h, AML, M4, DNMT3A R635W, read-out: GI50 (nM), day 10. How it is done: as §1
Another data set deals with MV4; 11. Description: Half-maximal growth inhibition (GI50), MV4; 11. The format is cell-based. The following applies: Homo sapiens, 240 h, AML, M5, MLL-AF4, read-out: GI50 (nM), day 10. On the procedure:
as §1

Another data set relates to MKPL1. Briefly: Half-maximal growth inhibition (GI50), MKPL1. The format is cell-based. As to conditions: Homo sapiens, 240 h, AML, M7, read-out: GI50 (nM), day 10. On the procedure:
as §1

A value given as a limit tells only on which side of the number the result lay.

As a reminder, the GI50 is the concentration giving 50% growth inhibition. The term AUC(0-inf) denotes total exposure, with the tail of the curve extrapolated. A high value points to more exposure. As to `CN(C)[C@H]1C[C@@]23CC[C@@]4(O2)C(=CC[C@]2(C)[C@@H](c5ccc6ccncc6c5)CC[C@H]24)C=C3[C@@H](O)[C@@H]1O` [Cortistatin A], the GI50 with SKNO-1 is less than 1 nM; in the data set on HEL it was greater than 1000 nM; in the data set with MOLM-14 it was less than 1 nM; in the data set on K562, greater than 1000 nM; in the data set on OCI-AML2, 1 nM; in the data set on MV4; 11 it was less than 1 nM. In addition, the GI50 with MKPL1 was less than 1 nM. Moreover, the AUC(0-inf) in the data set “in vivo” is 0.134 µg·h/mL. The “Efficacy Rank Day 15” value in data set [1] came out at 4.
